Like-named read-outs stand apart in the source and are kept apart here.
Columns and labels:
[1] = Stability of the same analytes in serum samples, with and without 5% DMSO (Table 3); format: physicochemical
Text: Table 3 is a test corresponding to the test of Table 2, but where the ten samples to be tested were serum samples rather than plasma samples.

[2] = Storage stability of analytes in serum sample without stabilizer (background statement); format: physicochemical; details: serum sample
Text: In connection with said determinations and sample handling the poor stability of gastrin-17 has proven to be a problem, due to the fact that it decomposes rapidly in the sample. […] This is in contrast to pepsinogen I and II, which retain their activity at room temperature for many days, and Helicobacter pylori antibodies, which survive for at least three days under refrigerator conditions.

[3] = Preservation of gastrin-17 in 5% DMSO/serum or plasma solutions; format: physicochemical; details: 5% (vol./vol.) DMSO/serum or plasma solutions, even at room temperature
[4] = for gastrin-17 concentration, Avg.: average of days 0-3
[5] = room temperature
Procedure: The effect of adding DMSO was tested on pepsinogen I, pepsinogen II, Helicobacter pylori antibodies and gastrin-17. The results are indicated at day 0 and day 3.

Substance: gastrin-17 [Gastrin 17]
- Gastrin 17 concentration ([1]; serum sample PL411s, 0% DMSO): 33.4 pmol/L
- Gastrin 17 concentration ([1]; serum sample PL411s, 5% DMSO): 32.5 pmol/L
- Gastrin 17 concentration ([1]; serum sample PL420b, 0% DMSO): 24.1 pmol/L
- Gastrin 17 concentration ([1]; serum sample PL420b, 5% DMSO): 20.1 pmol/L
- Gastrin 17 concentration ([1]; serum sample PL426s, 0% DMSO): 1.1 pmol/L
- Gastrin 17 concentration ([1]; serum sample PL426s, 5% DMSO): 1.9 pmol/L
- Gastrin 17 concentration ([1]; serum sample PL438s, 0% DMSO): 9.3 pmol/L
- Gastrin 17 concentration ([1]; serum sample PL438s, 5% DMSO): 9.8 pmol/L
- Gastrin 17 concentration ([1]; serum sample PL439s, 0% DMSO): 7.4 pmol/L
- Gastrin 17 concentration ([1]; serum sample PL439s, 5% DMSO): 8.5 pmol/L
- Gastrin 17 concentration ([1]; serum sample PL447b, 0% DMSO): 18.2 pmol/L
- Gastrin 17 concentration ([1]; serum sample PL447b, 5% DMSO): 21.7 pmol/L
- Gastrin 17 concentration ([1]; serum sample PL454s, 0% DMSO): 4.4 pmol/L
- Gastrin 17 concentration ([1]; serum sample PL454s, 5% DMSO): 5.6 pmol/L
- Gastrin 17 concentration ([1]; serum sample PL455b, 0% DMSO): 15.6 pmol/L
- Gastrin 17 concentration ([1]; serum sample PL455b, 5% DMSO): 17.6 pmol/L
- Gastrin 17 concentration ([1]; serum sample PL457b, 0% DMSO): 3.3 pmol/L
- Gastrin 17 concentration ([1]; serum sample PL457b, 5% DMSO): 6.0 pmol/L
- Gastrin 17 concentration ([1]; serum sample PL458s, 0% DMSO): 5.4 pmol/L
- Gastrin 17 concentration ([1]; serum sample PL458s, 5% DMSO): 2.2 pmol/L
- activity in samples with added 5% (vol./vol.) of DMSO ([1]; serum samples): generally retained activity
- state of the analyte in a serum sample after a day ([2]; after a day, refrigerating conditions): degraded completely
- time after which the concentration in a serum sample starts to decrease clearly ([2]; no stabilizer): three
- time for which gastrin-17 was preserved [3]: at least three
- gastrin-17 concentration, Avg. ([4]; EDTA-plasma sample PL459S, 0% DMSO): 4.1 pmol/L
- gastrin-17 concentration ([4]; EDTA-plasma sample PL459S, 0% DMSO, day 0): 8.5 pmol/L
- gastrin-17 concentration ([4]; EDTA-plasma sample PL459S, 0% DMSO, day 1): 3.6 pmol/L
- gastrin-17 concentration ([4]; EDTA-plasma sample PL459S, 0% DMSO, day 2): 2.7 pmol/L
- gastrin-17 concentration ([4]; EDTA-plasma sample PL459S, 0% DMSO, day 3): 1.5 pmol/L
- gastrin-17 concentration, Avg. ([4]; EDTA-plasma sample PL459S, 5% DMSO): 5.6 pmol/L
- gastrin-17 concentration ([4]; EDTA-plasma sample PL459S, 5% DMSO, day 0): 6.3 pmol/L
- gastrin-17 concentration ([4]; EDTA-plasma sample PL459S, 5% DMSO, day 1): 5.4 pmol/L
- gastrin-17 concentration ([4]; EDTA-plasma sample PL459S, 5% DMSO, day 2): 5.2 pmol/L
- gastrin-17 concentration ([4]; EDTA-plasma sample PL459S, 5% DMSO, day 3): 5.4 pmol/L
- gastrin-17 concentration, Avg. ([4]; EDTA-plasma sample PL460s, 0% DMSO): 6.0 pmol/L
- gastrin-17 concentration ([4]; EDTA-plasma sample PL460s, 0% DMSO, day 0): 7.9 pmol/L
- gastrin-17 concentration ([4]; EDTA-plasma sample PL460s, 0% DMSO, day 1): 5.8 pmol/L
- gastrin-17 concentration ([4]; EDTA-plasma sample PL460s, 0% DMSO, day 2): 5.8 pmol/L
- gastrin-17 concentration ([4]; EDTA-plasma sample PL460s, 0% DMSO, day 3): 4.6 pmol/L
- gastrin-17 concentration, Avg. ([4]; EDTA-plasma sample PL460s, 5% DMSO): 6.0 pmol/L
- gastrin-17 concentration ([4]; EDTA-plasma sample PL460s, 5% DMSO, day 0): 6.3 pmol/L
- gastrin-17 concentration ([4]; EDTA-plasma sample PL460s, 5% DMSO, day 1): 5.5 pmol/L
- gastrin-17 concentration ([4]; EDTA-plasma sample PL460s, 5% DMSO, day 2): 6.1 pmol/L
- gastrin-17 concentration ([4]; EDTA-plasma sample PL460s, 5% DMSO, day 3): 6.0 pmol/L
- gastrin-17 concentration, Avg. ([4]; EDTA-plasma sample PL461s, 0% DMSO): 12.4 pmol/L
- gastrin-17 concentration ([4]; EDTA-plasma sample PL461s, 0% DMSO, day 0): 26.0 pmol/L
- gastrin-17 concentration ([4]; EDTA-plasma sample PL461s, 0% DMSO, day 1): 8.7 pmol/L
- gastrin-17 concentration ([4]; EDTA-plasma sample PL461s, 0% DMSO, day 2): 8.5 pmol/L
- gastrin-17 concentration ([4]; EDTA-plasma sample PL461s, 0% DMSO, day 3): 6.1 pmol/L
- gastrin-17 concentration, Avg. ([4]; EDTA-plasma sample PL461s, 5% DMSO): 21.8 pmol/L
- gastrin-17 concentration ([4]; EDTA-plasma sample PL461s, 5% DMSO, day 0): 24.3 pmol/L
- gastrin-17 concentration ([4]; EDTA-plasma sample PL461s, 5% DMSO, day 1): 21.6 pmol/L
- gastrin-17 concentration ([4]; EDTA-plasma sample PL461s, 5% DMSO, day 2): 19.9 pmol/L
- gastrin-17 concentration ([4]; EDTA-plasma sample PL461s, 5% DMSO, day 3): 21.2 pmol/L
- Gastrin 17 concentration ([5]; EDTA-plasma sample PL466s, 0% DMSO, day 0): 7.6 pmol/L
- Gastrin 17 concentration ([5]; EDTA-plasma sample PL466s, 0% DMSO, day 3): 1.6 pmol/L
- Gastrin 17 concentration ([5]; EDTA-plasma sample PL466s, 5% DMSO, day 0): 7.8 pmol/L
- Gastrin 17 concentration ([5]; EDTA-plasma sample PL466s, 5% DMSO, day 3): 6.9 pmol/L
- Gastrin 17 concentration ([5]; EDTA-plasma sample PL467s, 0% DMSO, day 0): 5.3 pmol/L
- Gastrin 17 concentration ([5]; EDTA-plasma sample PL467s, 0% DMSO, day 3): 2.9 pmol/L
- Gastrin 17 concentration ([5]; EDTA-plasma sample PL467s, 5% DMSO, day 0): 4.4 pmol/L
- Gastrin 17 concentration ([5]; EDTA-plasma sample PL467s, 5% DMSO, day 3): 4.5 pmol/L
- Gastrin 17 concentration ([5]; EDTA-plasma sample PL471s, 0% DMSO, day 0): 1.3 pmol/L
- Gastrin 17 concentration ([5]; EDTA-plasma sample PL471s, 0% DMSO, day 3): 0.2 pmol/L
- Gastrin 17 concentration ([5]; EDTA-plasma sample PL471s, 5% DMSO, day 0): 1.7 pmol/L
- Gastrin 17 concentration ([5]; EDTA-plasma sample PL471s, 5% DMSO, day 3): 1.4 pmol/L
- Gastrin 17 concentration ([5]; EDTA-plasma sample PL472s, 0% DMSO, day 0): 20 pmol/L
- Gastrin 17 concentration ([5]; EDTA-plasma sample PL472s, 0% DMSO, day 3): 2.9 pmol/L
- Gastrin 17 concentration ([5]; EDTA-plasma sample PL472s, 5% DMSO, day 0): 21 pmol/L
- Gastrin 17 concentration ([5]; EDTA-plasma sample PL472s, 5% DMSO, day 3): 14.3 pmol/L
- Gastrin 17 concentration ([5]; EDTA-plasma sample PL473s, 0% DMSO, day 0): 3.7 pmol/L
- Gastrin 17 concentration ([5]; EDTA-plasma sample PL473s, 0% DMSO, day 3): 0.6 pmol/L
- Gastrin 17 concentration ([5]; EDTA-plasma sample PL473s, 5% DMSO, day 0): 3.8 pmol/L
- Gastrin 17 concentration ([5]; EDTA-plasma sample PL473s, 5% DMSO, day 3): 3.4 pmol/L

Source: patent US20070243558A1, “Peptide Stabilization” (priority 2004, published 2007)
